# Experimental data taken from patent US20250161245A1, “A MIXTURE OF UREA, BIURET AND N-CONTAINING BY-PRODUCTS CREATED DURING BIURET PRODUCTION AS A DIETARY NON-PROTEIN NITROGEN-SOURCE FOR RUMINANTS AND USES THEREOF” (Yara International ASA, priority 2022, published 2025).
# Key:
# rumen microbiota = assay: Gas Production Test, in vitro rumen fermentation model (Example 1); assay type: cell-based; details: 15 mg N per flask, 72 hours incubation
# Method: The in vitro model used to simulate rumen digestion and utilization of the products is the Gas Production Test protocol, adapted for protein digestibility, as described in more detail in the following paragraph.
# Approximately 1 liter of rumen fluid was collected from two different rumen-fistulated animals in the morning. Rumen fluid was strained through a cheesecloth, kept at 39° C. under CO2 and then diluted 1:19 with a nitrogen-free buffer and mineral solution containing 10.03 g NaHCO3, 1.43 g Na2HPO4, 1.55 g KH2PO4, 0.15 g MgSO4·7H2O, 0.52 g Na2S, 0.017 g CaCl2·2H2O, 0.015 g MnCl2·4H2O, 0.002 g […], 0.012 g FeCl3·6H2O and 0.125 mg resazurin per liter.
# To ensure the rumen fluid was depleted of free nitrogen and to ensure nitrogen would be the limiting factor for the microbial growth at the start of the experiment, the buffered rumen fluid was pre-incubated for 4 hours at 39° C. with a carbohydrate overload of glucose, xylose and soluble starch, each at 3.33 g/l. During this pre-incubation, all nitrogen available in the rumen fluid would be incorporated into bacterial protein and other bacterial nitrogen-containing components.
# Each product was weighed into different glass bottles on an isonitrogenous base, providing 15 mg N per flask. Then, 60 ml of the pre-incubated buffered rumen fluid was added, under continuous flushing with CO2. Flasks were closed with rubber stoppers and placed in a shaking water bath with 50 movements per minute at 39° C. to start the incubation period. The gas production of each flask was recorded continuously for 72 hours using a fully automated system. All test products including a blank (i.e. no product added to the flask of rumen fluid) were tested in one run in triplicate.
# The cumulative gas production was measured continuously for 72 hours.
# ruminal fluid [1] = assay: in vitro batch culture incubations: VFA, ammonia-N, pH (Example 4); assay type: cell-based, Angus crossbred steers; details: corn silage-based diet
# Method: In this example, an in vitro assay was performed using batch culture incubations, aiming to simulate rumen fermentation.
# Two ruminally cannulated Angus crossbred steers (808.8±36.3 kg body weight) were used as ruminal fluid donors for the in vitro batch culture incubations. The steers were fed a corn silage and gin trash diet (70% and 30% on a dry matter basis, respectively) ad libitum at least 35 days before collecting ruminal fluid to perform the in vitro incubations. Each steer received a NPN-mixture equivalent to 100 g of urea per day comprised of an equal amount of N from the different NPN sources to adapt the rumen microbial community. Thus, each steer was fed daily 33 g of urea (46 wt. % N) or 37 g of a urea-biuret mixture according to the present disclosure (UB) comprising 41 wt. % N. These amounts were mixed in with the feed diet every two days.
# The in vitro batch culture incubations were conducted as a randomized complete block design using 70 wt. % corn silage and 30 wt. % gin trash on a dry matter basis conserving the diet characteristics used during the animal adaptation period. The treatments were designed to be isonitrogenous (=having the same amount of dietary nitrogen) and equivalent to 1 wt. % of urea inclusion. The NPN treatments were consequently as follows: • Control without NPN-supplementation (“control”); • 100 wt % urea (Rumisan®) (“urea”); • 100 wt % of a urea/biuret mixture according to the present application (“UB”).
# The in vitro incubations were conducted on three separate days (replicates). A representative sample of digesta was collected from different places in the rumen of ruminally cannulated steers and strained through 4 layers of cheesecloth, placed in pre-warmed thermos containers, and transported to the laboratory within 30 minutes after the collection. In the laboratory, the ruminal fluid from the two steers was maintained under constant CO2-flux and was combined in equal proportions. This combined ruminal fluid was mixed with McDougall's buffer (McDougall, 1948) with and without 0.077 g/liter of 10 wt. % ammonium sulfate enriched with ^15N in relation 1:4, and it was used as an inoculum. Two bottles of 500 ml fitted with a side arm and a rubber septum were incubated per treatment. The bottles contained 5.6 g of substrate dry matter and 400 ml of ^15N enriched inoculum, and were incubated for 24 hours at 39° C. with an agitation of 60 rpm to monitor gas production kinetics using an Ankom Gas Monitoring System from Ankom Technologies, Fairport, New York. Also, one 500-ml bottle without 15N enriched inoculum was incubated to determine the basal ^15N enrichment. At 12 hours of incubation, two samples of 10 ml of rumen fluid were collected from each bottle through the septa port using a 20-ml syringe. These samples were acidified by adding 10 μl of a 20 vol/vol % of H2SO4-solution to each 10-ml sample, and frozen at minus 20° C. until further analysis. At the end of the 24 hours incubation, the final pH was recorded, the bottles were placed on ice to prevent further microbial fermentation and two 10-ml samples were collected and acidified by adding 20 μl of a 20 vol/vol % of H2SO4-solution and were frozen at minus 20° C. until further analysis. The remaining fermentation content was thereafter agitated at 60 rpm for 30 seconds and divided into two subsamples. […]
# ruminal fluid [2] = assay: in vitro methane production, batch culture (Example 4); assay type: cell-based, Angus crossbred steers; details: corn silage-based diet, 24 hours incubation
# Method: The amount of methane produced was determined by measuring total gas production and the contribution of methane to it. The production of gas was recorded using an Ankom Gas Monitoring System from Ankom Technologies. This system was adapted to 500 ml bottles during the entire fermentation process. The kinetics of the production was fitted to a Gompertz model to determine the rate of the total maximal gas production (M), fractional rate of gas produced (kf) and lag phase (L). A gas subsample was analyzed to measure methane concentration and calculate the total methane production during the fermentation. The concentration of methane was determined using a gas chromatograph Agilent 7820 GC from Agilent Technologies with flame ionization and a capillary column (Plot Fused Silica 25 m×0.32 mm, coating Molsieve 5A, Varian CP 7536 from Varian Inc.).
# [3] = 12 hours of incubation, equivalent to 1 wt. % urea
compound,measurement,setting,value
"NC(N)=O [Urea, urea]",maximum gas production rate,rumen microbiota,17 mL/h
same,time after which gas production stopped / maximum cumulative gas production (end level) was reached,rumen microbiota,30 h
same,lag period of cumulative gas production,"rumen microbiota; buffered rumen fluid, 39° C.",approximately 5 hours
same,Ammonia-N,ruminal fluid [1]; [3],2.74 mM
same,Total VFA,ruminal fluid [1]; [3],31.77 mM
same,Ammonia-N,ruminal fluid [1]; 24 hours of incubation,6.55 mM
same,Total VFA,ruminal fluid [1]; 24 hours of incubation,40.96 mM
same,pH,ruminal fluid [1]; 24 hours of incubation,6.38
same,methane production per g organic matter digested,ruminal fluid [2],6.86 mM/g OMd
same,methane production per g organic matter incubated,ruminal fluid [2],1.23 mM/g OMi
